According to patent US11453669B2, “Polycyclic pyridone derivative” (Shionogi & Co., Ltd., priority 2018, dated 2022):
pEC50: −log10 of the molar value. Where two headings read alike, the source gives them in different places.

Assays:
HIV [1] = assay: Anti-HIV activity (MT-4 cells, MTT); type: cell-based; details: Human immunodeficiency virus 1, MT4, 96 h, read-out: EC50_nM (50% HIV inhibitory concentration)
Method: Serial dilutions of a test sample were prepared in a 96-well microplate (50 μL/well). 2.5×10^5 cells/mL of an MT-4 cell suspension was dispensed at 100 μL/well to the plate containing the test sample. Then, an HIV virus solution was dispensed at 50 μL/well. The plate was mixed with a plate mixer and cultured for 4 days in a CO2 incubator. An MTT (3-(4,5-dimethylthiazol-2-yl)-2,5-diphenyltetrazolium bromide) solution was dispensed at 30 μL/well. The plate was reacted for 1 hour in a CO2 incubator. 150 μL of the supernatant was removed from each well so as not to take up the cells. 150 μL of a cell lysis solution was added to each well and well mixed with a plate mixer until the cells were completely lysed. The absorbance of the mixed plate was measured at two wavelengths of 560 nm and 690 nm using a microplate reader.

HIV [2] = assay: Anti-HIV activity evaluation test using PBMC of a healthy subject; type: cell-based; details: Human immunodeficiency virus 1, 96 h, read-out: 90% HIV inhibitory concentration (EC90); PHA-stimulated PBMC, cultured 4 days, reverse transcriptase activity
Method: Serial dilutions of a test sample were prepared in a 96-well microplate (50 μL/well). PBMC stimulated with 1.0×10^5 cells/well of Phytohemagglutinin (PHA) and an HIV virus solution were mixed for the required number of wells, and the mixture was reacted at 37° C. for 1 hour. After the reaction, the cell suspension was centrifuged and the supernatant discarded. The infected cells were dispersed in a culture solution for the required number of wells at 150 μL/well, and 150 μL/well was dispensed to a 96-well microplate containing a test sample. The plate was mixed with a plate mixer and cultured for 4 days in a C02 incubator. The reverse transcriptase activity in the culture solution was measured.

[3] = test system: HIV mutant strain 2 (E92Q/E138T/G140S/Q148H); type: cell-based; details: FC=EC50 of the mutant strain/EC50 of the wild strain, HeLa-CD4 cells
Method: (§1) Serial dilutions of a test sample were prepared in a 96-well microplate (50 μL/well). 2.5×10^5 cells/mL of a HeLa-CD4 cell suspension was dispensed at 100 μL/well to the plate containing the test sample. Then, an HIV virus solution (wild strain and mutant strain) was dispensed at 50 μL/well. The plate was mixed with a plate mixer and cultured for 3 days in a CO2 incubator. The culture supernatant in each well was removed by suction. A cell lysis buffer in a reporter assay kit was dispensed at 100 μL/well, and the plate was frozen in a freezer (−80° C.). The plate frozen in a freezer was thawed at room temperature, then mixed with a plate mixer, and centrifuged at 1,200 rpm for 5 minutes. The supernatant of each well was dispensed at 20 μL/well to a 96-well microplate (BLACK). A chemiluminescent in the reporter assay kit reagent was dispensed at 100 μL/well and reacted at room temperature for approximately 1 hour. Then, luminescence intensity was measured using MicroBeta TRILUX.

[4] = test system: HIV mutant strain 1 (E138K/G140S/Q148H/N155H); type: cell-based; details: FC=EC50 of the mutant strain/EC50 of the wild strain, HeLa-CD4 cells
Method: as §1

[5] = biological target: T1, Voltage gated sodium channel (Nav1.5 channel) encoded by SCN5A gene (Homo sapiens, UniProt Q14524); assay: Nav test (QPatch whole cell patch clamp); type: cell-based; details: HEK cells expressing Nav1.5, applied 5 minutes or more, room temperature
T1 construct: expressed in transfected cells; host or cells: HEK cells
T1 sequence (Q14524 whole entry): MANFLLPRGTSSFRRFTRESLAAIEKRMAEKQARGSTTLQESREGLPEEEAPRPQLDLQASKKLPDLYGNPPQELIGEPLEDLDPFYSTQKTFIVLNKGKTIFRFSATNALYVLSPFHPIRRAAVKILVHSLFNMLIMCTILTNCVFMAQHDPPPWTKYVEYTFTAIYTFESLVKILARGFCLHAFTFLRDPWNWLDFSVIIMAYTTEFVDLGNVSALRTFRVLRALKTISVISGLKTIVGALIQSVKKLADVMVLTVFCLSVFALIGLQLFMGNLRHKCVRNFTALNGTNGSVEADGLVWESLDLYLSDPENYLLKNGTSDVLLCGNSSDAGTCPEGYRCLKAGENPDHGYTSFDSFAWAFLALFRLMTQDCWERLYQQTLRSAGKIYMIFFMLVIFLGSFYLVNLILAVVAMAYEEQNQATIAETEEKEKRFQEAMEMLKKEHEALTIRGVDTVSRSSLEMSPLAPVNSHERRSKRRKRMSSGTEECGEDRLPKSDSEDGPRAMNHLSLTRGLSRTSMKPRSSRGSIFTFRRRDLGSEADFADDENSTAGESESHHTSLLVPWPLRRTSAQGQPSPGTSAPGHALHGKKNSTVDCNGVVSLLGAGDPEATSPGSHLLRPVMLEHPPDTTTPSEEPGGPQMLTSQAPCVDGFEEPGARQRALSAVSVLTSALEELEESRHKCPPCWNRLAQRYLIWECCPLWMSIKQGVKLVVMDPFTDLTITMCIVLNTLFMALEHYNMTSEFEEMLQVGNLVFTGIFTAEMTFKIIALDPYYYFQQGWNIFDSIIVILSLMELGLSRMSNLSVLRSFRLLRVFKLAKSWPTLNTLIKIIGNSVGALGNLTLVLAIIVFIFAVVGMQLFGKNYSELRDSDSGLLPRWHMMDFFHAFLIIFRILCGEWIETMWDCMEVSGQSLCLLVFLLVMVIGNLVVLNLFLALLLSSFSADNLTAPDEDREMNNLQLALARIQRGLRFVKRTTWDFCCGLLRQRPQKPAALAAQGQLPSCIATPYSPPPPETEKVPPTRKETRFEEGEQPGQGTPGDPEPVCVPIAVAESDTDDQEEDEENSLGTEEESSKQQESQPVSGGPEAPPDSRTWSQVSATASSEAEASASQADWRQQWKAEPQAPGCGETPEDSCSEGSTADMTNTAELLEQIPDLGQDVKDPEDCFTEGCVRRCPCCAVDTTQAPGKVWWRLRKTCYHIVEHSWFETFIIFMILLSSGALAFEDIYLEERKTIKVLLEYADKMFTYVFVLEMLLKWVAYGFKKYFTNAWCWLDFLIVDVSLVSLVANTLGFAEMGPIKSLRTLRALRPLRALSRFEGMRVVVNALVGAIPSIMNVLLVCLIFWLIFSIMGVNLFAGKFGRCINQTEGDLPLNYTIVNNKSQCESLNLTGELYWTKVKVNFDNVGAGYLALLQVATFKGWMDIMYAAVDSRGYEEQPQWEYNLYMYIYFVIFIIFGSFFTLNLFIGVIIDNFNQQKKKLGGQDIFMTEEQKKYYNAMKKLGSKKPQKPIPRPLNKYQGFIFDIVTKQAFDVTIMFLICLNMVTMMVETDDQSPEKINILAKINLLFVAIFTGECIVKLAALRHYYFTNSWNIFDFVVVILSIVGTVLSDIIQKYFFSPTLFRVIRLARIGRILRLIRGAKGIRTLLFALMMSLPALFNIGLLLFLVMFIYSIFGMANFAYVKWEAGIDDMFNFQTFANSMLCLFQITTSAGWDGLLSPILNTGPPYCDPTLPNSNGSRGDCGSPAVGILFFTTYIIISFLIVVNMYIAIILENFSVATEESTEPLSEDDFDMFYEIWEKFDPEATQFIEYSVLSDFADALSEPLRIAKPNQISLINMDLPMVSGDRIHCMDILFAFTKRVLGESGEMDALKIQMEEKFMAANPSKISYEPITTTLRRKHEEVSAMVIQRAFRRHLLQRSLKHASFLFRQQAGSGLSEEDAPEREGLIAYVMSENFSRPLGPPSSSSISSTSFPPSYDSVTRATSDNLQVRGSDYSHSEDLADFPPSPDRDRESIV
Method: A cell was retained at a membrane potential of −100 mV by whole cell patch clamp method using a fully automated patch clamp system (QPatch; Sophion Bioscience A/S), and INa induced by depolarization pulse stimulation at −10 mV for 20 ms was recorded. […] The extracellular solution in which the medium and the compound of the present invention had been dissolved at each objective concentration was applied to the cell for 5 minutes or more under conditions of room temperature.

HIV [6] = assay: Anti-HIV activity evaluation test in the presence of human serum protein (MT-4 cells); type: cell-based; details: PS=4×(EC50 with 25% human serum protein/EC50 without), 100% extrapolated value
Method: Serial dilutions of a test sample were prepared in a 96-well microplate (50 μL/well). A human serum protein solution (human serum protein concentration: 50%) was dispensed into a 96-well microplate containing a test sample in an amount of 100 μL/well, and left standing at room temperature for 1 hour. 100 μL/well of the culture solution was dispensed to a plate without serum. 3.0×10^5 cells/well of MT-4 cells and 3 μL/well of HIV virus solution were mixed for the required number of wells and the mixture was reacted at 37° C. for 1 hour. After the reaction, the cell suspension was centrifuged and the supernatant discarded. The infected cells were dispersed in a culture solution for the required number of wells at 50 μL/well, and 50 μL/well was dispensed to a 96-well microplate containing the test sample and human serum protein (human serum protein final concentration: 25%). The plate was mixed with a plate mixer and cultured for 4 days in a CO2 incubator. An MTT (3-(4,5-dimethylthiazol-2-yl)-2,5-diphenyltetrazolium bromide) solution was dispensed at 30 μL/well. The plate was reacted for 1 hour in a CO2 incubator. 150 μL of the supernatant was removed from each well so as not to take up the cells. […] The absorbance of the mixed plate was measured at two wavelengths of 560 nm and 690 nm using a microplate reader. […]

[7] = type: in vitro ADME; details: human, 30 min, 0.5 μmol/L, pH 7.4
Method: Using commercially available pooled human liver microsomes, a compound of the present invention was reacted for a constant time, and a remaining rate was calculated by comparing a reacted sample and an unreacted sample, thereby, a degree at which the compound of the present invention was metabolized in liver was assessed.
A reaction was performed (oxidative reaction) at 37° C. for 0 minute or 30 minutes in the presence of 1 mmol/L NADPH in 0.2 mL of a buffer solution (50 mmol/L Tris-HCl pH 7.4, 150 mmol/L potassium chloride, 10 mmol/L magnesium chloride) containing 0.5 mg protein/mL of human liver microsomes. After the reaction, 50 μL of the reaction solution was added to 100 μL of a solution of methanol/acetonitrile=1/1 (v/v), and the mixture was mixed and centrifuged at 3000 rpm for 15 minutes. The compound of the present invention in the centrifugation supernatant was quantified by LC/MS/MS or solid-phase extraction (SPE)/MS. The amount of the compound of the present invention remaining after the reaction was calculated with the amount of the compound at 0 minutes of the reaction defined as 100%.

[8] = Clearance evaluation test (rat, intravenous); type: in vivo; details: plasma, 1 umol/kg, rats, intravenous 1 μmol/kg; for half-life: read-out: elimination half-life (t½) (converted); for clearance: read-out: total body clearance (CLtot)
Description: Experimental Material and Method
(1) Animals used: rats were used.
(2) Rearing conditions: the rats were allowed to freely take solid feed and sterilized tap water.
(3) Dose and grouping setting: a given dose was intravenously administered. Groups were set as follows:
Intravenous administration: 1 μmol/kg (n=2)
(4) Preparation of dosing solution: the test sample was solubilized using a solvent of dimethyl sulfoxide/propylene glycol=1/1 and administered.
(5) Administration method: the test sample was administered to the tail vein through a syringe with an injection needle.
(6) Evaluation item: blood was collected over time, and the concentration of the compound of the present invention in plasma was measured using LC/MS/MS.
(7) Statistical analysis: total body clearance (CLtot) and elimination half-life (t½) were calculated as to change in the concentration of the compound of the present invention in plasma by the moment analysis method.

CYP3A4 = biological target: T2, CYP3A4 (Homo sapiens, UniProt P08684); assay: CYP3A4 (MDZ) MBI test; type: in vitro ADME; details: pooled human liver microsomes, midazolam 1-hydroxylation, IC 0 min preincubation/IC 30-min preincubation
T2 construct: from tissue; host or cells: pooled human liver microsomes
T2 sequence (P08684 whole entry): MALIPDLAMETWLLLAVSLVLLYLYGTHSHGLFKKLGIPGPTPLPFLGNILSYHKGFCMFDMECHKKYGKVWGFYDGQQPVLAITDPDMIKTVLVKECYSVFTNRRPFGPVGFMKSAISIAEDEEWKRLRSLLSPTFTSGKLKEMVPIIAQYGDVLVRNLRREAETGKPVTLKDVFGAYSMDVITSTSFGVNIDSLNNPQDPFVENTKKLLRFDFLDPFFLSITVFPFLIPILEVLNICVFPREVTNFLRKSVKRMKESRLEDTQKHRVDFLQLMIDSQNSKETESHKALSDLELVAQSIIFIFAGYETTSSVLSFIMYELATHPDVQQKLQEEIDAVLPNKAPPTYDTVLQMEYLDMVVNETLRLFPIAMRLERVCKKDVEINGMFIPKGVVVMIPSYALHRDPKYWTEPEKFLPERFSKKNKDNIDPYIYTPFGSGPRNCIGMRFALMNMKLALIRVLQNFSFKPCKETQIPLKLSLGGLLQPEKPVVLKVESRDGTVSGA
Method: This test as to the inhibition of CYP3A4 by the compound of the present invention is to evaluate mechanism based inhibition (MBI) ability from enhancement in inhibitory effect, caused by a metabolism reaction, of the compound of the present invention. CYP3A4 inhibition was evaluated using pooled human liver microsomes by 1-hydroxylation reaction of midazolam (MDZ) as a marker reaction. […]
A part of pre-reaction solution was transferred to another 96-well plate, and 1/10 diluted by K-Pi buffer solution containing a substrate. […] After each plate where the marker reaction has been performed was centrifuged at 3000 rpm for 15 minutes, 1-hydroxymidazolam in the centrifugation supernatant was quantified by LC/MS/MS.
Only a solvent DMSO used for dissolving the compound was added to the reaction solution instead of the compound of the present invention, and the mixture was used as a control (100%). Remaining activity (%) was calculated at the time of the addition of the compound of the present invention at each concentration, and IC value was calculated by inverse estimation based on a logistic model using the concentrations and the rates of inhibition. A shifted IC value is calculated from IC from the 0 min preincubation/IC from the 30-min preincubation. […]

SMILES	pEC50 (HIV [1])	EC90 (HIV [2]) [nM]	FC (fold change) for mutant strain 2 [3]	FC (fold change) for mutant strain 1 [4]	ratio of maximum peak current (INa) with compound relative to medium [5] [%]	potency shift (PS) in the presence of human serum protein (HIV [6])	residual rate [7]	pEC50 (HIV [1]; MT-4 cells, cultured 4 days, MTT)	half-life [8] [h]	clearance [8] [mL/h/kg]	CYP3A4 MBI grade (shifted IC) (CYP3A4)
CCN1C(=O)c2c(O)c(=O)c(-c3nnc(Cc4c(F)cc(F)cc4F)s3)cn2N2CCCC[C@@H]12 [Compound I-008]	8.80	1	6.9	3.8	103	116	97.7	–	–	–	–
CCN1C(=O)c2c(O)c(=O)c(-c3cnn(Cc4ncc(Cl)cc4F)c3)cn2N2CCCC[C@@H]12 [II-013]	–	–	–	–	–	–	–	7.49	35.4	1.36	–
CCN1C(=O)c2c(O)c(=O)c(-c3nnc(Cc4ccc(F)cc4F)s3)cn2N2C[C@@H](C)C[C@@H]12 [II-023]	8.92	1.7	2.5	4.1	93.3	56	98.3	–	–	–	–
CCN1C(=O)c2c(O)c(=O)c(-c3nnc(Cc4ccc(F)cc4F)s3)cn2N2[C@H](COC)CC[C@@H]12 [II-024]	9.89	–	11	8.2	89.3	–	96.5	–	23.6	2.18	–
CCN1C(=O)c2c(O)c(=O)c(-c3nnc(Cc4c(F)cc(F)cc4F)s3)cn2N2[C@H](COC)CC[C@@H]12 [II-037]	9.21	–	11	10	88.8	–	93.4	–	–	–	(−) (shifted IC of 1.0 or less is graded as negative (−))
C[C@H]1CC[C@H]2N(C)C(=O)c3c(O)c(=O)c(-c4nnc(Cc5ccc(F)cc5F)s4)cn3N2C1 [II-041]	9.60	–	8	5.8	78.8	–	95.5	–	–	–	–
CCN1C(=O)c2c(O)c(=O)c(-c3nnc(Cc4ccc(F)cc4F)s3)cn2N2C[C@@H]3CC[C@@H](C3)[C@@H]12 [II-051]	9.18	–	3.9	2.5	–	–	92.9	–	–	–	(−) (shifted IC of 1.0 or less is graded as negative (−))
